Assay results from paper PMC13309125, “Differential regulation of hepatic macrophage fate by Chi3l1 in metabolic dysfunction-associated steatotic liver disease” (eLife, 2026).

Target: T1, Chi3l1 (chitinase 3-like 1, YKL-40) (Mus musculus, UniProt Q61362)
T1 construct: recombinant mouse Chi3l1 (rChi3l1), labelled with His-Tag Labeling Kit RED-tris-NTA
Test: microscale thermophoresis (MST); supported by biotin-glucose pull-down competed by unlabeled glucose
Assay type: binding

T1 sequence (Q61362 30-389): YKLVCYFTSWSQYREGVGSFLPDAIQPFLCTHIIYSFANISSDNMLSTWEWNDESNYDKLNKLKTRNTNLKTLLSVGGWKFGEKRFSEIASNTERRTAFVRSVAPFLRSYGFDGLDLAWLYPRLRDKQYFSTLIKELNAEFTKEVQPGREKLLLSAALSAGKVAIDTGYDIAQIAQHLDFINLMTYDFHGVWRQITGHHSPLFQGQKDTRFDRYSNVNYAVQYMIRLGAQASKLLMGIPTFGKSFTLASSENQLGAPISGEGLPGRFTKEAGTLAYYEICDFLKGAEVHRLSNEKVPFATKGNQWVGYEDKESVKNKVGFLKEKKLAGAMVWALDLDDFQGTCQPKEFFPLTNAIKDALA

Kd: 4.95 mM
SMILES: OC[C@H]1OC(O)[C@H](O)[C@@H](O)[C@@H]1O (stereo partly shown) [glucose]
